In ChEMBL document CHEMBL1201862, “PubChem BioAssay data set” (2004):
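These data come from cells grown in 96-well plates and exposed to compound for 48 hours at five concentrations. Abbreviation: GI50, concentration required for 50% inhibition of growth.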 Calls of active or inactive are those of the source. Rule as the data show it: active = GI50 up to about 1.1 µM and inactive = higher.

What was measured:
Assay in all cases: DTP human tumour cell line panel, 48 h
HOP-62 = test system: HOP-62
HCT-116 = test system: HCT-116
IGROV-1 = test system: IGROV-1
KM12 = test system: KM12
HT-29 = test system: HT-29
HCT-15 = test system: HCT-15
786-0 = test system: 786-0
SK-MEL-28 = test system: SK-MEL-28
SF-295 = test system: SF-295
HOP-92 = test system: HOP-92
M14 = test system: M14
UACC-257 = test system: UACC-257
SR = test system: SR
T47D = test system: T47D
NCI-H522 = test system: NCI-H522
SK-OV-3 = test system: SK-OV-3
ACHN = test system: ACHN
UO-31 = test system: UO-31
Hs-578T = test system: Hs-578T
DU-145 = test system: DU-145
SW-620 = test system: SW-620
NCI/ADR-RES = test system: NCI/ADR-RES
A498 = test system: A498
SNB-19 = test system: SNB-19
MDA-MB-435 = test system: MDA-MB-435
OVCAR-5 = test system: OVCAR-5
CAKI-1 = test system: CAKI-1
SK-MEL-2 = test system: SK-MEL-2
SN12C = test system: SN12C
A549 = test system: A549
TK-10 = test system: TK-10
OVCAR-4 = test system: OVCAR-4
EKVX = test system: EKVX
OVCAR-3 = test system: OVCAR-3
K562 = test system: K562
LOX IMVI = test system: LOX IMVI
HCC 2998 = test system: HCC 2998
NCI-H460 = test system: NCI-H460
U-251 = test system: U-251
SF-539 = test system: SF-539
COLO 205 = test system: COLO 205
MDA-N = test system: MDA-N
UACC-62 = test system: UACC-62
MCF7 = test system: MCF7
SF-268 = test system: SF-268
PC-3 = test system: PC-3
OVCAR-8 = test system: OVCAR-8
Malme-3M = test system: Malme-3M
NCI-H226 = test system: NCI-H226
SK-MEL-5 = test system: SK-MEL-5
NCI-H23 = test system: NCI-H23
MOLT-4 = test system: MOLT-4
MDA-MB-231 = test system: MDA-MB-231
CCRF-CEM = test system: CCRF-CEM
RPMI-8226 = test system: RPMI-8226
RXF 393 = test system: RXF 393
HL-60 = test system: HL-60

CC1(C)OP(=O)(O)CC1=O
GI50 (HOP-62): > 100 µM (inactive) | GI50 (HCT-116): > 100 µM (inactive) | GI50 (IGROV-1): > 100 µM (inactive) | GI50 (KM12): > 100 µM (inactive) | GI50 (HT-29): > 100 µM (inactive) | GI50 (HCT-15): > 100 µM | GI50 (786-0): > 100 µM (inactive) | GI50 (SK-MEL-28): > 100 µM (inactive) | GI50 (SF-295): > 100 µM (inactive) | GI50 (HOP-92): > 100 µM (inactive) | GI50 (M14): > 100 µM (inactive) | GI50 (UACC-257): > 100 µM (inactive) | GI50 (SR): > 100 µM (inactive) | GI50 (T47D): > 100 µM (inactive) | GI50 (NCI-H522): > 100 µM (inactive) | GI50 (SK-OV-3): > 100 µM (inactive) | GI50 (ACHN): > 100 µM (inactive) | GI50 (UO-31): > 100 µM (inactive) | GI50 (Hs-578T): > 100 µM (inactive) | GI50 (DU-145): > 100 µM (inactive) | GI50 (SW-620): > 100 µM (inactive) | GI50 (NCI/ADR-RES): > 100 µM (inactive) | GI50 (A498): > 100 µM (inactive) | GI50 (SNB-19): > 100 µM (inactive) | GI50 (MDA-MB-435): > 100 µM (inactive) | GI50 (OVCAR-5): > 100 µM (inactive) | GI50 (CAKI-1): > 100 µM (inactive) | GI50 (SK-MEL-2): > 100 µM (inactive) | GI50 (SN12C): > 100 µM (inactive) | GI50 (A549): > 100 µM (inactive) | GI50 (TK-10): > 100 µM (inactive) | GI50 (OVCAR-4): > 100 µM (inactive) | GI50 (EKVX): > 100 µM (inactive) | GI50 (OVCAR-3): > 100 µM (inactive) | GI50 (K562): > 100 µM (inactive) | GI50 (LOX IMVI): > 100 µM (inactive) | GI50 (HCC 2998): > 100 µM (inactive) | GI50 (NCI-H460): > 100 µM (inactive) | GI50 (U-251): > 100 µM (inactive) | GI50 (SF-539): > 100 µM (inactive) | GI50 (COLO 205): > 100 µM (inactive) | GI50 (MDA-N): > 100 µM (inactive) | GI50 (UACC-62): > 100 µM (inactive) | GI50 (MCF7): > 100 µM (inactive) | GI50 (SF-268): > 100 µM (inactive) | GI50 (PC-3): > 100 µM (inactive) | GI50 (OVCAR-8): > 100 µM (inactive) | GI50 (Malme-3M): > 100 µM (inactive) | GI50 (NCI-H226): > 100 µM (inactive) | GI50 (SK-MEL-5): > 100 µM (inactive) | GI50 (NCI-H23): > 100 µM (inactive)

Cc1ccc(C(=O)OC[C@H]2CC[C@@H](n3cc(N(C)C4CCCCC4)c(=O)[nH]c3=O)O2)cc1
GI50 (HOP-62): 20.6 µM (inactive) | GI50 (HCT-116): 16.7 µM (inactive) | GI50 (IGROV-1): 33.4 µM (inactive) | GI50 (KM12): 19.6 µM (inactive) | GI50 (HT-29): 18.5 µM (inactive) | GI50 (MOLT-4): 30 µM (inactive) | GI50 (HCT-15): 24.5 µM | GI50 (786-0): 28.1 µM (inactive) | GI50 (SK-MEL-28): 53.1 µM (inactive) | GI50 (SF-295): 15.7 µM (inactive) | GI50 (M14): 11 µM (inactive) | GI50 (UACC-257): 32.7 µM (inactive) | GI50 (SR): 95.7 µM (inactive) | GI50 (NCI-H522): 24.3 µM (inactive) | GI50 (SK-OV-3): 8.28 µM (inactive) | GI50 (ACHN): 26.6 µM (inactive) | GI50 (MDA-MB-231): 14.9 µM (inactive) | GI50 (CCRF-CEM): 27.4 µM (inactive) | GI50 (UO-31): 13.9 µM (inactive) | GI50 (Hs-578T): 35.8 µM (inactive) | GI50 (DU-145): > 100 µM (inactive) | GI50 (SW-620): 40 µM (inactive) | GI50 (NCI/ADR-RES): 20 µM (inactive) | GI50 (A498): 19.5 µM (inactive) | GI50 (SNB-19): 19.3 µM (inactive) | GI50 (MDA-MB-435): 65.2 µM (inactive) | GI50 (OVCAR-5): 26.6 µM (inactive) | GI50 (CAKI-1): 31.4 µM (inactive) | GI50 (SK-MEL-2): 85.7 µM (inactive) | GI50 (SN12C): 20.7 µM (inactive) | GI50 (A549): 28.7 µM (inactive) | GI50 (TK-10): 30 µM (inactive) | GI50 (OVCAR-4): 30.9 µM (inactive) | GI50 (EKVX): 38.9 µM (inactive) | GI50 (OVCAR-3): 21.6 µM (inactive) | GI50 (K562): 38 µM (inactive) | GI50 (LOX IMVI): 19.1 µM (inactive) | GI50 (HCC 2998): > 100 µM (inactive) | GI50 (NCI-H460): 32.7 µM (inactive) | GI50 (U-251): 20.2 µM (inactive) | GI50 (RPMI-8226): 31.4 µM (inactive) | GI50 (SF-539): 23.8 µM (inactive) | GI50 (COLO 205): 19.1 µM (inactive) | GI50 (MDA-N): 23.7 µM (inactive) | GI50 (UACC-62): 29.7 µM (inactive) | GI50 (MCF7): 22.1 µM (inactive) | GI50 (RXF 393): 16.7 µM (inactive) | GI50 (SF-268): 28 µM (inactive) | GI50 (PC-3): 29.4 µM (inactive) | GI50 (HL-60): 27.9 µM (inactive) | GI50 (OVCAR-8): 28.1 µM (inactive) | GI50 (Malme-3M): 24.7 µM (inactive) | GI50 (NCI-H226): 24.4 µM (inactive) | GI50 (SK-MEL-5): 18.8 µM (inactive) | GI50 (NCI-H23): 43.9 µM (inactive)
